Source: patent publication US10323018B2 (Millennium Pharmaceuticals, Inc., priority 2015, dated 2019)
Where two headings read alike, the source gives them in different places.

What was measured:
PC3 cells = test: PC3 growth inhibition (Cell-titer glo, 72 hours); format: cell-based; details: for viability at 1.667 µM: Homo sapiens, PC-3, 72 h, read-out: Percent Viability, PC3 cells, compound concentration 1.667 μM, 72 hours
Method: The invention also provides compounds that inhibit cell growth. The ability of a compound of the invention to inhibit the growth of cells can be measured using a variety of methods known in the art. For example, the ability of a compound of the invention to inhibit the growth of PC3 cells can be measured. PC3 cells can be plated and incubated overnight under CO2. For each measurement, a compound of the invention (or vehicle e.g., DMSO) can be diluted with AIM serum free medium and added to the cell plate. The cell plate can then be incubated for 72 h under CO2. Cell-titer glo solution can be added and the plates can be incubated protected from light and the amount of luminescences can be measured. Concentration response curves can be generated by calculating the luminescence increase in test compound treated samples relative to DMSO-treated controls. Percentage remaining viability values at a single concentration can be measured. Growth inhibition (GI50) or cell viability (LD50) values can be determined from thoses curves. In one embodiment, compounds of the invention have a percent viability in PC3 line @ 1.667 uM of <1%. In one embodiment, compounds of the invention have a percent viability in PC3 line @ 1.667 uM of <2%. In one embodiment, compounds of the invention have a percent viability in PC3 line @ 1.667 uM of <3%. In one embodiment, compounds of the invention have a percent viability in PC3 line @ 1.667 uM of <4%. In one embodiment, compounds of the invention have a percent viability in PC3 line @ 1.667 uM of <5%. In one embodiment, compounds of the invention have a percent viability in PC3 line @ 1.667 uM of <10%. In one embodiment, compounds of the invention have a percent viability in PC3 line @ 1.667 uM of <50%.
To measure PC3 growth inhibition, PC3 cells that were maintained in RPMI1640 growth medium (Life Technologies; Cat. No. 11875) at 37° C. under 5% CO2 are trypsinized and diluted at a density of 8×10^4 cells/ml, 25 ul per well of cells and plated in 384-well black tissue culture plate. The cells are incubated overnight at 37° C. under 5% CO2. For each measurement, a test compound or vehicle DMSO control is diluted with AIM serum free medium and added to the cell plate. The cell plate is incubated for 72 hours at 37° C. under 5% CO2. 25 μl Cell-titer glo solution (Promega; Cat. No. G8462) is added and the cell plates are incubated for 10 minutes protected from light. The luminescence is measured. Concentration response curves are generated by calculating the luminescence increase in test compound-treated samples relative to DMSO-treated controls. Percentage remaining viability values at a single concentration, growth inhibition (GI50) or cell viability (LD50) values are determined from those curves. One skilled in the art will appreciate that these values are subject to experimental variation.

hNAMPT protein = hNAMPT protein (Homo sapiens (Human), UniProt P43490); test: NAMPT enzyme assay (TR-FRET/HTRF with BodiPY ligand); format: binding; details: for inhibition at 1 µM: read-out: Percent Inhibition; for IC50: NAMPT inhibition, IC50 range class
Sequence of hNAMPT protein (P43490 whole entry): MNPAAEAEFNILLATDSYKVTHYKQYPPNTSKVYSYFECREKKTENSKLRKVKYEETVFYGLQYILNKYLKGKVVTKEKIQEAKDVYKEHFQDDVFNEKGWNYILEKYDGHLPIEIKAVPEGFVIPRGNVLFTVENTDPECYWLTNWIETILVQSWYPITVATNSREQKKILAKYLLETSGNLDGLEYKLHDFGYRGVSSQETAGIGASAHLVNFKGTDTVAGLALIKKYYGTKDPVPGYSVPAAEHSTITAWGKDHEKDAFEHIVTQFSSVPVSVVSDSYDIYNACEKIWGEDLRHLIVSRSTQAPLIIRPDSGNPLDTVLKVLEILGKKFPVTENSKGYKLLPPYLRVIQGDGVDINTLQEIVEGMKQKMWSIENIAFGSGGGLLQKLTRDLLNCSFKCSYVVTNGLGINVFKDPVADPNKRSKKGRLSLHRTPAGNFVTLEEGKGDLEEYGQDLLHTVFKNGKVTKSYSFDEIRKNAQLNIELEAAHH
Source text: As discussed above, the invention provides compounds that are useful as inhibitors of the enzyme NAMPT. The NAMPT inhibition of a compound of the invention can be measured using a variety of methods known in the art. For example, the ability of a compound of the invention to inhibit NAMPT enzyme activity can be measured using a homogeneous time resolved fluorescence (HTRF) assay using hNAMPT protein and anti 6His-Tb in buffer treated with a compound of the invention (or control e.g., DMSO) and BodiPY ligand. The TR-FRET signal can be measured using a high throughput microplate reader (e.g., Pherastar). Excitation can be carried out at 320 nm. The percent inhibition value at a single concentration of compound of the invention can be calculated relative to a control treated sample. A concentration response curve can be generated for each compound of the invention and the curve fitted to generate an IC50 value. […] To measure the inhibition of NAMPT activity hNAMPT protein stock and anti 6His-Tb (Cisbio; Cat. No. […]TLB) is diluted to 3× final concentration with assay buffer (50 mM Tris-HCl (pH 7.5), 1 mM DTT, 100 mM NaCl, 10 mM MgCl2, 0.005% Tween 20). To this solution is added a test compound or vehicle control (DMSO) and BodiPY ligand (structure below). The plate is shaken for 1-2 min sealed and incubated for 1 h at rt in the dark. The TR-FRET signal is measured using BMG Pherastar (Lanthascreen protocol on BMG Pherastar). Excitation was carried out at 320 nm, and the ratio of emission of BodiPY (520 nm) to terbium (486 nm) was determined. Concentration response curves are generated by calculating the excitation increase in test compound-treated samples relative to DMSO-treated controls. For the assay method described above, test compound percent inhibition values at a single concentration are calculated relative to control (DMSO) treated samples. Compound concentration response curves are fitted to generate IC50 values from those curves. One skilled in the art will appreciate that these values generated either as percentage inhibition at a single concentration or IC50 values are subject to experimental variation.

[1] = NAMPT inhibition at compound concentration 1 μM

| Compound | viability at 1.667 µM (PC3 cells) [%] | inhibition at 1 µM (hNAMPT protein; [1]) [%] | IC50 (hNAMPT protein) [nM] | Percent Viability (PC3 cells; human, 72 h, 1.667 µM) [%] | Percent Inhibition (hNAMPT protein; [1]) [%] | inhibition at 1 µM (hNAMPT protein) [%] |
| --- | --- | --- | --- | --- | --- | --- |
| CCCc1nc(-c2ccc(Cl)cc2)nc2cc(C(=O)NCC3CC3c3ncc[nH]3)ccc12 (racemic) [Compound I-59, 2-(4-chlorophenyl)-N-{[trans-(1,2)-2-(1H-imidazol-2-yl)cyclopropyl]methyl}-4-propylquinazoline-7-carboxamide] | 2 | 90 | 50 to 100 |  |  |  |
| CCOc1cc(-c2ccc(F)cc2)nc2cc(C(=O)NCC3CC3c3ncc[nH]3)ccc12 (single isomer, unassigned) [Compound I-50, 4-Ethoxy-2-(4-fluorophenyl)-N-{[trans-(1,2)-2-(1H-imidazol-2-yl)cyclopropyl]methyl}quinoline-7-carboxamide] | 3 | 99 | < 10 |  |  |  |
| CCOc1cc(-c2ccc(F)cc2)nc2cc(C(=O)NCC3CC3c3ncc[nH]3)ccc12 (single isomer, unassigned) [Compound I-51, 4-Ethoxy-2-(4-fluorophenyl)-N-{[trans-(1,2)-2-(1H-imidazol-2-yl)cyclopropyl]methyl}quinoline-7-carboxamide] |  |  | 10 to 50 | 4 | 98 |  |
| CC[C@@H](F)c1nc(-c2ccc(Cl)cc2)nc2cc(C(=O)NCCCc3ncc[nH]3)ccc12 (stereo in doubt) [Compound I-72, 2-(4-chlorophenyl)-4-[1-fluoropropyl]-N-[3-(1H-imidazol-2-yl)propyl]quinazoline-7-carboxamide] | 1 | 98 | < 10 |  |  |  |
| CCCc1nc(-c2ccc(Cl)cc2)nc2cc(C(=O)NCCc3cncn3C)ccc12 [Compound I-1, 2-(4-chlorophenyl)-N-[2-(1-methyl-1H-imidazol-5-yl)ethyl]-4-propylquinazoline-7-carboxamide] | 2 | > 99 | < 10 |  |  |  |
| CCOc1cc(-c2ccc(F)cc2)nc2cc(C(=O)NCCc3cncn3C)ccc12 [Compound I-2, 4-ethoxy-2-(4-fluorophenyl)-N-[2-(1-methyl-1H-imidazol-5-yl)ethyl]quinoline-7-carboxamide] | 2 | > 99 | < 10 |  |  |  |
| CCCc1nc(-c2ccc(Cl)cc2)nc2cc(C(=O)N[C@H]3C[C@@H](c4ncc[nH]4)C3)ccc12 [Compound I-3, 2-(4-Chlorophenyl)-N-[cis-3-(1H-imidazol-2-yl)cyclobutyl]-4-propyl-quinazoline-7-carboxamide] | 2 | 94 | 10 to 50 |  |  |  |
| CCCc1nc(-c2ccc(Cl)cc2)nc2cc(C(=O)NCCCc3ncc[nH]3)ccc12 [Compound I-4, 2-(4-chlorophenyl)-N-[3-(1H-imidazol-2-yl)propyl]-4-propylquinazoline-7-carboxamide] | 1 | 99 | < 10 |  |  |  |
| CCOc1cc(-c2ccc(F)cc2)nc2cc(C(=O)NCCCc3nnc[nH]3)ccc12 [Compound I-5, 4-ethoxy-2-(4-fluorophenyl)-N-[3-(4H-1,2,4-triazol-3-yl)propyl]quinoline-7-carboxamide] | 1 | 100 | < 10 |  |  |  |
| CCOc1cc(-c2ccc(F)cc2)nc2cc(C(=O)NCCc3cn(C)cn3)ccc12 [Compound I-6, 4-ethoxy-2-(4-fluorophenyl)-N-[2-(1-methyl-1H-imidazol-4-yl)ethyl]quinoline-7-carboxamide] | 1 | 94 | 50 to 100 |  |  |  |
| CCCc1nc(-c2ccc(Cl)cc2)nc2cc(C(=O)NCCCc3nnc[nH]3)ccc12 [Compound I-7, 2-(4-chlorophenyl)-4-propyl-N-[3-(4H-1,2,4-triazol-3-yl)propyl]quinazoline-7-carboxamide] | 1 | 97 | 10 to 50 |  |  |  |
| CCCc1nc(-c2ccc(Cl)cc2)nc2cc(C(=O)NCc3ccc4nccn4c3)ccc12 [Compound I-8, 2-(4-chlorophenyl)-N-(imidazo[1,2-a]pyridin-6-ylmethyl)-4-propylquinazoline-7-carboxamide] | 1 | 98 | < 10 |  |  |  |
| CCCc1nc(-c2ccc(Cl)cc2)nc2cc(C(=O)NCc3nc4ccncc4[nH]3)ccc12 [Compound I-9, 2-(4-chlorophenyl)-N-(3H-imidazo[4,5-c]pyridin-2-ylmethyl)-4-propylquinazoline-7-carboxamide] | 1 | 93 | < 10 |  |  |  |
| COc1nc(-c2ccc(Cl)cc2)nc2cc(C(=O)NCCCc3ncc[nH]3)ccc12 [Compound I-10, 2-(4-chlorophenyl)-N-[3-(1H-imidazol-2-yl)propyl]-4-methoxyquinazoline-7-carboxamide] | 1 | 100 | < 10 |  |  |  |
| CCOc1cc(-c2cc(Cl)ccc2F)nc2cc(C(=O)NCCCc3ncc[nH]3)ccc12 [Compound I-11, 2-(5-chloro-2-fluorophenyl)-4-ethoxy-N-[3-(1H-imidazol-2-yl)propyl]quinoline-7-carboxamide] | 1 | > 99 | < 10 |  |  |  |
| CCOc1cc(-c2cc(OC)ncc2F)nc2cc(C(=O)NCCCc3ncc[nH]3)ccc12 [Compound I-12, 4-ethoxy-2-(5-fluoro-2-methoxypyridin-4-yl)-N-[3-(1H-imidazol-2-yl)propyl]quinoline-7-carboxamide] | 1 | > 99 | < 10 |  |  |  |
| CCOc1cc(-c2ccc(Cl)cc2)nc2cc(C(=O)NCCCc3ncc[nH]3)ccc12 [Compound I-13, 2-(4-chlorophenyl)-4-ethoxy-N-[3-(1H-imidazol-2-yl)propyl]quinoline-7-carboxamide] | 0 |  | < 10 |  |  | > 99 |
| CCOc1cc(-c2ccc(F)cc2)nc2cc(C(=O)NCc3nc4cnccc4[nH]3)ccc12 [Compound I-14, 4-ethoxy-2-(4-fluorophenyl)-N-(1H-imidazo[4,5-c]pyridin-2-ylmethyl)quinoline-7-carboxamide] | 1 | > 99 | < 10 |  |  |  |
| CCOc1cc(-c2ccc(F)cc2)nc2cc(C(=O)NCCCc3ncc[nH]3)ccc12 [Compound I-15, 4-ethoxy-2-(4-fluorophenyl)-N-[3-(1H-imidazol-2-yl)propyl]quinoline-7-carboxamide] | 2 | > 99 | < 10 |  |  |  |
